Results from patent US7795203B2, “Method for topical treatment of eye disease and composition and device for said treatment” (priority 2002, dated 2010).
Where a SMILES comes first, the peptide text is derived from it.

What was measured:
[1] = Clinical study of 0.1% N-Acetyl-RGDS in patients with POAG and OH (IOP, tonography); format: in vivo, human; settings: 0.1% topically twice daily
Source text: Without intending to be bound by theory, the inventor currently believes that RGD-containing peptides, and/or their pharmacologically acceptable salts, are efficacious for the therapeutical and surgical treatment of primary open-angle glaucoma (POAG) and ocular hypertension (OH). […] The effect of 0.1% N-Acetyl-RGDS on outflow facility, as studied by tonography, was striking providing a significant increase to 26-33%. The cleansing activity of Acetyl-RGDS is accompanied by increase in trabecular outflow facility which is different from that of other drugs (pilocarpine) previously shown in patients with POAG and OH. The clinical significance and mechanism of IOP reduction by N-Acetyl-RGDS are related with the cleansing effect of N-Acetyl-RGDS on extracellular matrix proteins and plaque material in trabecular meshwork to reduce the outflow resistance in the eyes of patients with POAG and OH. It is believed N-Acetyl-RGDS is also suitable to treat secondary cataracts and vitreoproliferative disorders.

[2] = Pharmacokinetic studies: N-acetylcarnosine in blood plasma after topical administration to the eye; format: in vivo
Method: (§1) Yet another advantage of the present invention is that systemic absorption of N-acetylcarnosine and/or carnosine is increased through the microvessels of the conjunctival and lid mucosal tissues because the cellulose compound increases the time of persistence of N-acetylcarnosine in the conjunctival sac. More particularly, N-acetylcarnosine appears in blood plasma within 30 min of its topical administration to the eye with carboxymethylcellulose. The half time of decay of N-acetylcarnosine in plasma is about 150 min or more according to pharmacokinetic studies. […] Accordingly, once in blood plasma N-acetylcarnosine can act as a competititve saturating inhibitor of carnosinase, which is very helpful to protect L-carnosine from hydrolysis during concomitant oral administration of L-carnosine as an anti-aging therapy.

carnosinase = target: T1, carnosinase (Homo sapiens, UniProt Q96KN2); test: Hydrolysis with carnosinase; format: biochemical; settings: substrate of carnosinase similar to L-carnosine
T1 sequence (Q96KN2 27-507 limits assumed): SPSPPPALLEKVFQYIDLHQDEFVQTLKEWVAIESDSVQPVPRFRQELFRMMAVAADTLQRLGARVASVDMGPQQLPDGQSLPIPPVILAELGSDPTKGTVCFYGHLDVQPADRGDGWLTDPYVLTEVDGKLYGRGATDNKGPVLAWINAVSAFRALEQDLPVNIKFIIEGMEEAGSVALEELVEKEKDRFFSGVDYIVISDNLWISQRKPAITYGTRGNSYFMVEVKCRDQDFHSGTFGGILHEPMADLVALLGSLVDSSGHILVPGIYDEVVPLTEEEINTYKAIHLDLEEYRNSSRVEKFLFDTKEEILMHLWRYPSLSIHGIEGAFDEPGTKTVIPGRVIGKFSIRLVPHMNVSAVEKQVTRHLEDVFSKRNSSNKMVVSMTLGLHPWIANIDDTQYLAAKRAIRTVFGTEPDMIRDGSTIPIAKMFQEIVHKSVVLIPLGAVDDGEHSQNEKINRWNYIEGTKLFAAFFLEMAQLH
Method: as §1

## CC(=O)N[C@@H](CCCNC(=N)N)C(=O)NCC(=O)N[C@@H](CC(=O)O)C(=O)N[C@@H](CO)C(=O)O [N-Acetyl-RGDS, N-acetyl-Arg-Gly-Asp-Ser peptide] (Ac-RGDS-OH)
[1]
  tolerability: well tolerated

## CC(=O)NCCC(=O)N[C@@H](Cc1c[nH]cn1)C(=O)O [N-acetylcarnosine]
[2]; according to pharmacokinetic studies
  half time of decay in plasma: ≥ 150 min
[2]; topical administration to the eye with carboxymethylcellulose
  time to appearance in blood plasma: ≤ 30 min
carnosinase
  resistance to hydrolysis with carnosinase: highly resistant to hydrolysis with carnosinase
